Source: patent publication US9040714B2 (MannKind Corporation, priority 2010, dated 2015)
Like-named read-outs stand apart in the source and are kept apart here.

Legend:
[1] = target: human IRE-1α (GST-IRE-1α) (Homo sapiens (Human), UniProt O75460); test: IRE-1α assay in vitro: cleavage of Cy5/BHQ2-labelled mini-XBP-1 mRNA stem-loop substrate; type: biochemical; conditions: average IC50 for inhibition of IRE-1α
Experimental: In some embodiments IRE-la inhibitor compounds form a complex with IRE-1α. […] Other substrates also can be used to detect cleavage. See US 2007/0105123.
A fusion protein comprising glutathione S transferase (GST) and human IRE-1α (GST-IRE-1α) obtained from a 500 ml baculovirus-infected insect cell culture can be used to measure IRE-1α activity in vitro.
Five μl of a reaction mixture comprising IX reaction buffer (5× reaction buffer is 100 mM Hepes pH 7.5, 250 mM KOAc, 2.5 mM MgCl2), 3 mM DTT, and 0.4% polyethylene glycol water is added to each well of 384 well plates. Twenty-five nanoliters of a 1 mM test compound solution are added to test wells. Three μl of a […] IRE-1α preparation are added to each test well and to positive control wells (final concentration 5.82 ng/well). Negative control wells contain only reaction mixture and test compound.
After spinning the plates at 1200 rpm for 30 seconds, 3 μl of an IRE-1α human mini-XBP-1 mRNA stem-loop substrate 5′-[…]-3′ (SEQ ID NO:1), labeled with the fluorescent dye Cy5 at the 5′ end and Black Hole Quencher 2 (BH2) at the 3′ end, are added to each well of a control plate. The plates are again spun at 1200 rpm for 30 seconds. Final concentrations for the assay are: 63 nM IRE-1α substrate, 5.82 ng IRE-1α protein, and 2.5 μM test compound.
The plates are covered with lids and incubated for one hour at 30° C. The plates are then transferred to an ACQUEST™ microplate reader. Data is analyzed using data analysis software, and the percent activity of IRE-1α is calculated.
IC50 for inhibition of IRE-1α of compounds identified in Table 1 was measured as described in EXAMPLE 35.

[2] = system: IRE-1α-mediated XBP-1 splicing in human myeloma MM.1s cells; test: Cellular EC50: endogenous XBP-1 splicing in myeloma cells by RT-PCR (DTT stress); type: cell-based; conditions: MM1.S, read-out: EC50_av
Procedure, shortened: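 MM.1s myeloma cells were pretreated with compound 1.25 h, then stressed with 2 mM DTT for 45 min more (2 h total). XBP-1 was amplified by RT-PCR from total RNA with intron-flanking primers; ED50 taken at 50% spliced XBP-1s of total XBP-1.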

[3] = average cellular EC50, XBP-1 splicing in myeloma cells

Chain of human IRE-1α (GST-IRE-1α) (O75460 19-977): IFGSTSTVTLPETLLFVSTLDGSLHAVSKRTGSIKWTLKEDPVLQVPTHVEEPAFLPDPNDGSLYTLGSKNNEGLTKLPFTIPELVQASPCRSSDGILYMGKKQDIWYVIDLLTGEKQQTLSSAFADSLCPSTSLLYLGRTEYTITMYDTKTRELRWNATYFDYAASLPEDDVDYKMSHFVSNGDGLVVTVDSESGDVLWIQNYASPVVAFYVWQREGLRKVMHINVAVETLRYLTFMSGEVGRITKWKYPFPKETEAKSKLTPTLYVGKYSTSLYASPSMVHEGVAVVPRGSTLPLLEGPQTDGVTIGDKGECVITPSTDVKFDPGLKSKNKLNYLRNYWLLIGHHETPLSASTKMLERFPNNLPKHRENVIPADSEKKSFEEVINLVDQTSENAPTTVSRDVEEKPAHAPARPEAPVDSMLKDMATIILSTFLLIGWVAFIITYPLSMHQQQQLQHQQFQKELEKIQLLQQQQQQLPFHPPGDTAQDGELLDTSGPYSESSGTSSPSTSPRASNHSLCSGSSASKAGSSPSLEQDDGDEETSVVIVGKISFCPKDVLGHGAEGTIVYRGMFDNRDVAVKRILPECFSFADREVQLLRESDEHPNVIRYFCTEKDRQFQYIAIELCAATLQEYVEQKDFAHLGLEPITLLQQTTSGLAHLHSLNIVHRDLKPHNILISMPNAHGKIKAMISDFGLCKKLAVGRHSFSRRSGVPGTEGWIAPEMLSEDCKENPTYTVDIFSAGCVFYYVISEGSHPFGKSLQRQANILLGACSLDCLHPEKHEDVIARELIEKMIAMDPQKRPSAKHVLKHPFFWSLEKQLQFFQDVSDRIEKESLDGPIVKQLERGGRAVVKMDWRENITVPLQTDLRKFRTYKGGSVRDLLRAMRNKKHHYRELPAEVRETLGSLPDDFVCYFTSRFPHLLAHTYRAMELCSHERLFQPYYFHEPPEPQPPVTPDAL

SMILES | IC50 [1] [µM] | EC50 [2, 3] [µM] | EC50 [2] [µM]
COc1cc2c(CN3CCOCC3)c(C)c(=O)oc2c(C=O)c1O [Example 132] | < 0.1 | < 10 | –
COc1cc2c(CN(C)C)c(C)c(=O)oc2c(C=O)c1O [Example 133] | < 0.1 | < 10 | –
COCc1cc(=O)oc2c(C=O)c(O)c(OC)cc12 [Example 136] | < 1 | < 10 | –
COCc1c(C)c(=O)oc2c(C=O)c(O)ccc12 [Example 137] | < 0.1 | < 10 | –
COCCNC(=O)CCc1c(COC)c2cc(OC)c(O)c(C=O)c2oc1=O [Example 138] | < 1 | > 10 | –
COCc1c(CCC(=O)N2CCOCC2)c(=O)oc2c(C=O)c(O)c(OC)cc12 [Example 139] | < 0.1 | < 10 | –
COCc1c(CCC(=O)NCCN2CCOCC2)c(=O)oc2c(C=O)c(O)c(OC)cc12 [Example 140] | < 1 | > 10 | –
COc1cc2c(C)c(-c3ccc(C(=O)N4CCN(C)CC4)s3)c(=O)oc2c(C=O)c1O [Example 141] | < 0.1 | < 10 | –
COc1cc2c(C)c(-c3ccc(C(=O)N4CCOCC4)s3)c(=O)oc2c(C=O)c1O [Example 142] | < 0.1 | < 10 | –
COc1cc2c(C)c(-c3ccc(C(=O)NCCN4CCOCC4)s3)c(=O)oc2c(C=O)c1O [Example 143] | < 1 | < 10 | –
COc1cc2c(C(C)C)cc(=O)oc2c(C=O)c1O [Example 146] | < 0.1 | < 10 | –
COc1cc2c(C)c(CCC(=O)NCCO)c(=O)oc2c(C=O)c1O [Example 147] | < 0.1 | > 10 | –
COc1cc2c(C)c(CC(=O)NCCO)c(=O)oc2c(C=O)c1O [Example 148] | < 0.1 | > 10 | –
COCOCCNC(=O)Cc1c(C)c2cc(OC)c(O)c(C=O)c2oc1=O [Example 149] | < 1 | < 10 | –
COCCNC(=O)c1ccc(-c2c(C)c3cc(Cl)c(O)c(C=O)c3oc2=O)cc1 [Example 150] | < 1 | – | > 10
Cc1c(-c2ccc(C(=O)NCCN3CCOCC3)cc2)c(=O)oc2c(C=O)c(O)c(Cl)cc12 [Example 151] | < 1 | > 10 | –
COCCNC(=O)CCc1c(C)c2c(OCCOC)cc(O)c(C=O)c2oc1=O [Example 152] | < 1 | < 10 | –
COCCOc1cc(O)c(C=O)c2oc(=O)c(CCC(=O)N3CCOCC3)c(C)c12 [Example 153] | < 0.1 | < 10 | –
COCCOc1cc(O)c(C=O)c2oc(=O)c(CCC(=O)N3CCN(C)CC3)c(C)c12 [Example 154] | < 0.1 | – | < 10
CCNC(=O)CCc1c(C)c2c(OCCOC)cc(O)c(C=O)c2oc1=O [Example 155] | < 1 | – | < 10
COCCOc1cc(O)c(C=O)c2oc(=O)c(CCC(=O)NCCN3CCOCC3)c(C)c12 [Example 156] | < 1 | > 10 | –
COCCOc1cc(O)c(C=O)c2oc(=O)c(CCC(=O)NCCN(C)C)c(C)c12 [Example 157] | < 1 | > 10 | –
COCCNC(=O)Cc1c(C)c2cc(OC)c(O)c(C=O)c2oc1=O [Example 166] | < 1 | < 10 | –
COc1cc2c(C)c(CC(=O)N3CCN(C)CC3)c(=O)oc2c(C=O)c1O [Example 168] | < 0.1 | < 10 | –
CCNC(=O)Cc1c(C)c2cc(OC)c(O)c(C=O)c2oc1=O [Example 169] | < 0.1 | < 10 | –

SMILES | IC50 [1] [µM] | EC50 [2, 3] [µM] | EC50 [2] [µM]
COc1cc2c(C)c(CC(=O)NCCN(C)C)c(=O)oc2c(C=O)c1O [Example 170] | < 1 | < 10 | –
COCCNC(=O)CCc1c(C)c2cc(OC)c(O)c(C=O)c2oc1=O [Example 171] | < 0.1 | – | < 10
COc1cc2c(C)c(CCC(=O)N3CCOCC3)c(=O)oc2c(C=O)c1O [Example 172] | < 0.1 | < 10 | –
COc1cc2c(C)c(CCC(=O)N3CCN(C)CC3)c(=O)oc2c(C=O)c1O [Example 173] | < 0.1 | – | < 10
CCNC(=O)CCc1c(C)c2cc(OC)c(O)c(C=O)c2oc1=O [Example 174] | < 0.1 | < 10 | –
COc1cc2c(C)c(CCC(=O)NCCN(C)C)c(=O)oc2c(C=O)c1O [Example 175] | < 1 | > 10 | –
COCCNC(=O)Cc1c(C)c2c(OC)cc(O)c(C=O)c2oc1=O [Example 176] | < 0.1 | < 10 | –
COc1cc(O)c(C=O)c2oc(=O)c(CC(=O)N3CCOCC3)c(C)c12 [Example 177] | < 0.1 | < 10 | –
COc1cc(O)c(C=O)c2oc(=O)c(CC(=O)NCCN3CCOCC3)c(C)c12 [Example 179] | < 1 | < 10 | –
COc1cc(O)c(C=O)c2oc(=O)c(CC(=O)NCCN(C)C)c(C)c12 [Example 180] | < 0.1 | < 10 | –
COCCOc1cc2c(C)c(CCC(=O)N3CCOCC3)c(=O)oc2c(C=O)c1O [Example 181] | < 0.1 | < 10 | –
COCCOc1cc2c(C)c(CCC(=O)N3CCN(C)CC3)c(=O)oc2c(C=O)c1O [Example 182] | < 0.1 | < 10 | –
COCCNC(=O)CCc1c(C)c2cc(OCCOC)c(O)c(C=O)c2oc1=O [Example 184] | < 0.1 | < 10 | –
COCCOc1cc2c(C)c(CCC(=O)NCCN(C)C)c(=O)oc2c(C=O)c1O [Example 185] | < 0.1 | – | > 10
COCCOc1cc2c(C)c(CCC(=O)NCCN3CCOCC3)c(=O)oc2c(C=O)c1O [Example 186] | < 1 | > 10 | –
COc1cc(O)c(C=O)c2oc(=O)c(CCC(=O)N3CCOCC3)c(C)c12 [Example 192] | < 1 | < 10 | –
COc1cc(O)c(C=O)c2oc(=O)c(CCC(=O)N3CCN(C)CC3)c(C)c12 [Example 193] | < 0.1 | < 10 | –
COCCNC(=O)CCc1c(C)c2c(OC)cc(O)c(C=O)c2oc1=O [Example 194] | < 0.1 | < 10 | –
COc1cc(O)c(C=O)c2oc(=O)c(CCC(=O)NCCN3CCOCC3)c(C)c12 [Example 196] | < 0.1 | < 10 | –
COc1cc2c(C(F)(F)F)cc(=O)oc2c(C=O)c1O [Example 197] | < 1 | < 10 | –
COc1cc2c3c(c(=O)oc2c(C=O)c1O)CCC3 [Example 198] | > 1 | – | < 10
COc1cc2c(C)c(C)c(=O)oc2c(C=O)c1O [Example 199] | < 0.1 | > 10 | –
COc1cc2c(C)c(C(C)C)c(=O)oc2c(C=O)c1O [Example 200] | < 0.1 | – | > 10
Cc1c(CCC(=O)NCCN2CCOCC2)c(=O)oc2c(C=O)c(O)ccc12 [Example 201] | < 0.1 | < 10 | –
